Publication PMC6416464 (Drug Metabolism Letters, 2018)
Read-outs that look alike come from different tables or passages of the source.

How the values were obtained:
[1] = Metabolic stability, incubation with human liver microsomes; conditions: 1 µM test compound, 0.5 mg/mL protein
CYP3A4 [2] = biological target: T1, CYP3A4 (Homo sapiens, UniProt P08684); assay: in vitro; conditions: microsomes, pH 7.4, % Inhibition of Control Activity CYP3A4 (substrate, testosterone)
[3] = Metabolic stability, incubation with human liver cytosol; assay type: in vitro ADME; conditions: 1 µM test compound, 1 mg/mL protein
CYP2C8 = biological target: T2, CYP2C8 (Homo sapiens, UniProt P10632); assay: CYP inhibition in human liver microsomes, CYP2C8; conditions: human, human liver microsomes, pH 7.4, probe paclitaxel
T2 sequence (P10632 1-490): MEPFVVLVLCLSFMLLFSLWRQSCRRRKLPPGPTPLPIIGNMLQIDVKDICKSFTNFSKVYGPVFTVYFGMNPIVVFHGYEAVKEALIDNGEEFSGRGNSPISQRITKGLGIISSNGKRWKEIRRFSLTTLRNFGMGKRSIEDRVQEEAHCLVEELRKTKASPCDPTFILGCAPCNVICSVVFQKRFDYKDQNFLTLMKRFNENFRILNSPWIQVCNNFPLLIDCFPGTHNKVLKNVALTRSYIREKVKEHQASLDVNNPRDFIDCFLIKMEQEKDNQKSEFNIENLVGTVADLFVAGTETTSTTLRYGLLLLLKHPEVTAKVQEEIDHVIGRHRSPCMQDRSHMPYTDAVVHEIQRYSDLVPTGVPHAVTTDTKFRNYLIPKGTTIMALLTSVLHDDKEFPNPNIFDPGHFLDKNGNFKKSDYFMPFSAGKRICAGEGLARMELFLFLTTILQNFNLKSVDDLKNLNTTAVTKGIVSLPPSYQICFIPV

CYP3A4 [4] = biological target: T1, CYP3A4; assay: in vitro; conditions: microsomes, pH 7.4
rCYP2D6 = rCYP2D6 (Homo sapiens, UniProt P10635); assay: Metabolic stability / reaction phenotyping with recombinant human CYP2D6; conditions: 1 µM test compound; 100 pmol/mL; 30 min
rCYP2C19 = rCYP2C19 (Homo sapiens, UniProt P33261); assay: Metabolic stability / reaction phenotyping with recombinant human CYP2C19; conditions: for % Metabolized at 30 min Incubation with Human Liver Fractions/Enzymes rCYP2C19: 1 µM test compound, 100 pmol/mL
rCYP2C8 = biological target: T3, rCYP2C8 (Homo sapiens, UniProt P10632); assay: Metabolic stability / reaction phenotyping with recombinant human CYP2C8; conditions: for % Metabolized at 30 min Incubation with Human Liver Fractions/Enzymes rCYP2C8: 1 µM test compound, 100 pmol/mL
T3 sequence (P10632 1-490): T2 sequence (P10632 1-490)

rCYP3A4 = rCYP3A4 (Homo sapiens, UniProt P08684)
rCYP1A2 = biological target: T4, rCYP1A2 (Homo sapiens, UniProt P05177); assay: Metabolic stability / reaction phenotyping with recombinant human CYP1A2; conditions: 1 µM test compound; 100 pmol/mL; 30 min
T4 sequence (P05177 1-516): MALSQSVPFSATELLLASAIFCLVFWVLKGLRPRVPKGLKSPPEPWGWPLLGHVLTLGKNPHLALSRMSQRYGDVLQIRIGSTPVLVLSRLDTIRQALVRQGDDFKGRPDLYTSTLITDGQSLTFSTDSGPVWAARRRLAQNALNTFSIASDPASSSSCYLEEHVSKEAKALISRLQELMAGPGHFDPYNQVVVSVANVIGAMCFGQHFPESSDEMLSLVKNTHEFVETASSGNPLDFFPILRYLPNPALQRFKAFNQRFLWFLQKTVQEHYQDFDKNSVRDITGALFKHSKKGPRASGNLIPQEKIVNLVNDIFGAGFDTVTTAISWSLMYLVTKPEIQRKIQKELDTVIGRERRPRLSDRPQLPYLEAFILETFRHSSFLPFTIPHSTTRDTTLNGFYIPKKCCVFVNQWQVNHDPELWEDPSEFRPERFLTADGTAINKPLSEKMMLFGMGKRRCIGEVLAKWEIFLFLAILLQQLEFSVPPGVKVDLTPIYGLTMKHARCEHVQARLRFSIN

rCYP2C9 = rCYP2C9 (Homo sapiens, UniProt P11712); assay: Metabolic stability / reaction phenotyping with recombinant human CYP2C9; conditions: for % Metabolized at 30 min Incubation with Human Liver Fractions/Enzymes rCYP2C9: 1 µM test compound, 100 pmol/mL
CYP1A2 = biological target: T5, CYP1A2 (Homo sapiens, UniProt P05177); assay: CYP inhibition in human liver microsomes, CYP1A2; conditions: human, human liver microsomes, pH 7.4, probe phenacetin, Percent inhibition, positive control inhibitor, CYP1A2, concentration tested 20 nM
T5 sequence (P05177 1-516): T4 sequence (P05177 1-516)

[5] = human, recombinant human CYP2C19, 1 µM, pH 7.4
[6] = 1 µM test compound, 100 pmol/mL, 30 min
[7] = human, recombinant enzyme, pH 7.4
[8] = human, recombinant human CYP2C8, 1 µM, pH 7.4
[9] = human, recombinant human CYP2C9, 1 µM, pH 7.4

T1 sequence (P08684 2-503): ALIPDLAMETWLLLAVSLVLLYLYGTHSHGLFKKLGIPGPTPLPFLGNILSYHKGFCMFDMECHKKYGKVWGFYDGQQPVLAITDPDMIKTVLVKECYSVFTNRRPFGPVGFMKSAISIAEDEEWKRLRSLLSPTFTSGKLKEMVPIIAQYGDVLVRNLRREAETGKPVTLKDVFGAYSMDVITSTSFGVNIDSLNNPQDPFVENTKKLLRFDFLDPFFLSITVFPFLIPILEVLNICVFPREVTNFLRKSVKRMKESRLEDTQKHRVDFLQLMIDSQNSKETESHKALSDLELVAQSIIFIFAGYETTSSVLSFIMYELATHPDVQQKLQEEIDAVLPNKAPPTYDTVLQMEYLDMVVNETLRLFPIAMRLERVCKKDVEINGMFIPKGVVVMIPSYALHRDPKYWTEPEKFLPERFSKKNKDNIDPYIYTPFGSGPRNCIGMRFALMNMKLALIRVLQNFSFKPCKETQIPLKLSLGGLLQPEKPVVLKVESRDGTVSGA
rCYP3A4, sequence (P08684 whole entry): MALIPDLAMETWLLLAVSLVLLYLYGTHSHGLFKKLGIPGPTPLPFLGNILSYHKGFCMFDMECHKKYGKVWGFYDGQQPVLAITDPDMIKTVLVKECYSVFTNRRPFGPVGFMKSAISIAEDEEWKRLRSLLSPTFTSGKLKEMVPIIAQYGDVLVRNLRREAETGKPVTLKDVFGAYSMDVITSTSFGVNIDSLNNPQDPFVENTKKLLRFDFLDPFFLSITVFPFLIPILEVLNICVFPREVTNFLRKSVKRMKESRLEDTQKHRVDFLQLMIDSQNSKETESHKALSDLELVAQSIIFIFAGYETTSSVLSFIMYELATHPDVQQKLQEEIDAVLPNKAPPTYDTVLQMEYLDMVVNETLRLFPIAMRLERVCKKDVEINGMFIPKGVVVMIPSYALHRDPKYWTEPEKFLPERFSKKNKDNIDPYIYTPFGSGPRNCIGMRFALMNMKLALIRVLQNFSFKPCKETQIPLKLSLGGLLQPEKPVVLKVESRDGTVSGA
rCYP2C19, sequence (P33261 whole entry): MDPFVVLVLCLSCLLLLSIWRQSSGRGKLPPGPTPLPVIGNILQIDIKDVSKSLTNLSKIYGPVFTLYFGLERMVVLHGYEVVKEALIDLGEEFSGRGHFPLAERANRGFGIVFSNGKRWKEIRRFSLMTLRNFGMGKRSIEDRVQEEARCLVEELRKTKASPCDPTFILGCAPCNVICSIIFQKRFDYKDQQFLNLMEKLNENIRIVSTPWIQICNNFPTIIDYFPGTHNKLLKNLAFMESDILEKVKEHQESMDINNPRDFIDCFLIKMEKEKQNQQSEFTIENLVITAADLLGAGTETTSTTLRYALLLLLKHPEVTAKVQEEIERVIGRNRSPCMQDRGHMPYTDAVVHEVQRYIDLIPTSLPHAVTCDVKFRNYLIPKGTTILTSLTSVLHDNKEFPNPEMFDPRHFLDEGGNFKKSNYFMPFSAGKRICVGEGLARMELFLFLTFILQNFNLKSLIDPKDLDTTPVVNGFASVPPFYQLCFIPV
rCYP2C9, sequence (P11712 whole entry): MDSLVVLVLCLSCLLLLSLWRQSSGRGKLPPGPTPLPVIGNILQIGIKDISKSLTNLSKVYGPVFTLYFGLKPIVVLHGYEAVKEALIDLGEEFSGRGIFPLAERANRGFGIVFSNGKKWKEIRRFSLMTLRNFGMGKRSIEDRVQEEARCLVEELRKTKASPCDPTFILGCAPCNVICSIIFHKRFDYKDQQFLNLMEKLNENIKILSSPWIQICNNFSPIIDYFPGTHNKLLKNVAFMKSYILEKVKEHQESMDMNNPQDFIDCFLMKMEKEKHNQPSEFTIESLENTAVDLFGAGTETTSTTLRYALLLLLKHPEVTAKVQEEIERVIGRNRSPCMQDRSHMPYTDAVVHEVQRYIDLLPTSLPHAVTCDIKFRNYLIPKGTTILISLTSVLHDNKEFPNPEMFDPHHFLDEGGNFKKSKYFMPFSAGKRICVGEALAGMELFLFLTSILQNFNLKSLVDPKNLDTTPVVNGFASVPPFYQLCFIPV
rCYP2D6, sequence (P10635 whole entry): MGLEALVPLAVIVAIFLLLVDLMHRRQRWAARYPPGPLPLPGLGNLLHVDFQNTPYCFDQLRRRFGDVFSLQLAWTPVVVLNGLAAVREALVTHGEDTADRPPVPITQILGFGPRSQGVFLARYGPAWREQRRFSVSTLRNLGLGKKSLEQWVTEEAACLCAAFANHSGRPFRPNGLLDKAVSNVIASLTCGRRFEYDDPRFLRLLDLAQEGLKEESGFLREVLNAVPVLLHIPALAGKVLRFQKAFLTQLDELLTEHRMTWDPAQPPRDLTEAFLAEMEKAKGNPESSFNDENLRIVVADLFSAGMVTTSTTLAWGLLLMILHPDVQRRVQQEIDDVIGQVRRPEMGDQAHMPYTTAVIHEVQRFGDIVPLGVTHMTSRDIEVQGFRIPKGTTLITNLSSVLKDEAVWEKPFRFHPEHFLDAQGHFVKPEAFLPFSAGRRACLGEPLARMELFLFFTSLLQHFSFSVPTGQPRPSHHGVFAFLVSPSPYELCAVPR

CNC(=O)O/N=C/C(C)(C)S(C)(=O)=O [Aldicarb sulfone, aldicarb sulfone]
% Metabolized at 30 min Incubation with Human Liver Fractions/Enzymes HLM [1]: 1.05% | inhibition at 2 µM (CYP3A4 [2]): 1.83% | inhibition at 10 µM (CYP3A4 [2]): < 0% | % Metabolized at 30 min Incubation with Human Liver Fractions/Enzymes Cytosol [3]: 0.00% | inhibition at 2 µM (CYP2C8): 2.77% | inhibition at 10 µM (CYP2C8): 4.1% | inhibition at 2 µM (CYP3A4 [4]): < 0% | inhibition at 10 µM (CYP3A4 [4]): < 0%

CNC(=O)O/N=C/C(C)(C)[S+](C)[O-] (centres unmarked) [Aldicarb sulfoxide, aldicarb sulfoxide]
% Metabolized at 30 min Incubation with Human Liver Fractions/Enzymes HLM [1]: 21.18% | % Metabolized at 30 min Incubation with Human Liver Fractions/Enzymes rCYP2D6 (rCYP2D6): 0.00% | % Metabolized at 30 min Incubation with Human Liver Fractions/Enzymes rCYP2C19 (rCYP2C19): 0.85% | % Contribution of CYP Enzymes (fmCYP) in Metabolism, CYP2C19 (rCYP2C19; [5]): 2.34% | Predicted Microsomal Clint, CYP2C19 (rCYP2C19; [5]): 0.054 µL/min/mg Protein | rCYP Clint, CYP2C19 (rCYP2C19; [5]): 0.003 µL/min/pmol | inhibition at 2 µM (CYP3A4 [2]): < 0% | inhibition at 10 µM (CYP3A4 [2]): < 0% | % Metabolized at 30 min Incubation with Human Liver Fractions/Enzymes Cytosol [3]: 0.00% | inhibition at 2 µM (CYP2C8): < 0% | inhibition at 10 µM (CYP2C8): 2.32% | % Metabolized at 30 min Incubation with Human Liver Fractions/Enzymes rCYP2C8 (rCYP2C8): 0.00% | % Metabolized at 30 min Incubation with Human Liver Fractions/Enzymes rCYP3A4 (rCYP3A4; [6]): 5.91% | Predicted Microsomal Clint, CYP3A4 (rCYP3A4; human, pH 7.4): 2.254 µL/min/mg Protein | % Contribution of CYP Enzymes (fmCYP) in Metabolism, CYP3A4 (rCYP3A4; [7]): 97.66% | rCYP Clint, CYP3A4 (rCYP3A4; [7]): 0.020 µL/min/pmol | inhibition at 2 µM (CYP3A4 [4]): < 0% | inhibition at 10 µM (CYP3A4 [4]): < 0% | % Metabolized at 30 min Incubation with Human Liver Fractions/Enzymes rCYP1A2 (rCYP1A2): 0.00% | % Metabolized at 30 min Incubation with Human Liver Fractions/Enzymes rCYP2C9 (rCYP2C9): 0.00%

CNC(=O)O/N=C/C(C)(C)SC [Aldicarb, aldicarb]
% Metabolized at 30 min Incubation with Human Liver Fractions/Enzymes HLM [1]: 13.41% | % Metabolized at 30 min Incubation with Human Liver Fractions/Enzymes rCYP2D6 (rCYP2D6): 0.00% | % Metabolized at 30 min Incubation with Human Liver Fractions/Enzymes rCYP2C19 (rCYP2C19): 6.93% | inhibition at 2 µM (CYP3A4 [2]): < 0% | inhibition at 10 µM (CYP3A4 [2]): < 0% | % Metabolized at 30 min Incubation with Human Liver Fractions/Enzymes Cytosol [3]: 21.08% | inhibition at 2 µM (CYP2C8): 2.63% | inhibition at 10 µM (CYP2C8): < 0% | % Metabolized at 30 min Incubation with Human Liver Fractions/Enzymes rCYP2C8 (rCYP2C8): 13.26% | % Contribution of CYP Enzymes (fmCYP) in Metabolism, CYP2C8 (rCYP2C8; [8]): 56.91% | Predicted Microsomal Clint, CYP2C8 (rCYP2C8; [8]): 3.035 µL/min/mg Protein | rCYP Clint, CYP2C8 (rCYP2C8; [8]): 0.047 µL/min/pmol | % Metabolized at 30 min Incubation with Human Liver Fractions/Enzymes rCYP3A4 (rCYP3A4; [6]): 0.00% | inhibition at 2 µM (CYP3A4 [4]): < 0% | inhibition at 10 µM (CYP3A4 [4]): < 0% | % Metabolized at 30 min Incubation with Human Liver Fractions/Enzymes rCYP1A2 (rCYP1A2): 0.00% | % Metabolized at 30 min Incubation with Human Liver Fractions/Enzymes rCYP2C9 (rCYP2C9): 0.00% | % Contribution of CYP Enzymes (fmCYP) in Metabolism, CYP2C9 (rCYP2C9; [9]): 43.09% | Predicted Microsomal Clint, CYP2C9 (rCYP2C9; [9]): 2.298 µL/min/mg Protein | rCYP Clint, CYP2C9 (rCYP2C9; [9]): 0.024 µL/min/pmol

CN(C)CCCOc1nn(Cc2ccccc2)c2ccccc12 [Benzydamine, reference compound]
% Metabolized at 30 min Incubation with Human Liver Fractions/Enzymes HLM [1]: 16.45%

COc1ccc2c(c1)[C@]13CCCC[C@@H]1[C@H](C2)N(C)CC3 [Dextromethorphan, dextromethorphan]
% Metabolized at 30 min Incubation with Human Liver Fractions/Enzymes rCYP2D6 (rCYP2D6): 99.81%

O=C(O)Cc1ccccc1Nc1c(Cl)cccc1Cl [Diclofenac, diclofenac, reference compound]
% Metabolized at 30 min Incubation with Human Liver Fractions/Enzymes rCYP2C9 (rCYP2C9): 98.61%

CN(Cc1cnc2nc(N)nc(N)c2n1)c1ccc(C(=O)N[C@@H](CCC(=O)O)C(=O)O)cc1 [Methotrexate, reference compound]
% Metabolized at 30 min Incubation with Human Liver Fractions/Enzymes Cytosol [3]: 3.18%

CC(=O)O[C@H]1C(=O)[C@@]2(C)[C@H]([C@H](OC(=O)c3ccccc3)[C@]3(O)C[C@H](OC(=O)[C@H](O)[C@@H](NC(=O)c4ccccc4)c4ccccc4)C(C)=C1C3(C)C)[C@]1(OC(C)=O)CO[C@@H]1C[C@@H]2O [Paclitaxel, paclitaxel]
% Metabolized at 30 min Incubation with Human Liver Fractions/Enzymes rCYP2C8 (rCYP2C8): 11.21%

CCOc1ccc(NC(C)=O)cc1 [Phenacetin, phenacetin]
% Metabolized at 30 min Incubation with Human Liver Fractions/Enzymes rCYP1A2 (rCYP1A2): 91.43%

c1ccc2cnncc2c1 [Phthalazine, phthalazine, reference compound]
% Metabolized at 30 min Incubation with Human Liver Fractions/Enzymes Cytosol [3]: 90.89%

CN(CCOc1ccc(CC2SC(=O)NC2=O)cc1)c1ccccn1 (centres unmarked) [Rosiglitazone, reference compound]
inhibition at 25 µM (CYP2C8): 69.2%

C[C@]12CC[C@H]3[C@@H](CCC4=CC(=O)CC[C@@]43C)[C@@H]1CC[C@@H]2O [Testosterone, testosterone, reference compound]
% Metabolized at 30 min Incubation with Human Liver Fractions/Enzymes HLM [1]: 90.74% | % Metabolized at 30 min Incubation with Human Liver Fractions/Enzymes rCYP3A4 (rCYP3A4; human, recombinant enzyme, 0.5 h, pH 7.4): 85.13%

O=c1cc(-c2ccccc2)oc2c1ccc1ccccc12 [α-Nepthoflavone, α-naphthoflavone, reference compound]
inhibition at 20 nM (CYP1A2): 62.4%
